The source of these data is US7709471B2, “Compounds” (AstraZeneca AB, priority 2006, dated 2010).

The structures appear in SMILES notation. A value given as a limit tells only on which side of the number the result lay.

The experiment has as its system human colon tumour cell line HT29. The experiment is described as follows: Cellular Assay (phosphohistone H3 Ser10 mitotic marker, HT29). Type of experiment: cell-based. The following applies: HT-29, 24 h, HT29 cells, read-out: IC50 (cellular assay, phosphohistone H3).
Description: Chromosome condensation in mitosis is accompanied by phosphorylation of histone H3 on serine 10.
After 24 hours, cells were fixed in 3.7% (v/v) formaldehyde then permeabilised and blocked for 10 minutes in 100 μl 0.5% (v/v) Triton X-100, 1% (w/v) bovine serum albumin (BSA) in phosphate buffered saline (PBS). […] The raw assay data were analysed by non-linear regression analysis and used to determine an IC50 value for each compound.
As to `COc1cc(C(=O)N[C@@H]2CCN(C)C2)c(F)cc1Nc1ncc2c(n1)N(C1CCCCC1)CC1(CC1)C(=O)N2C` [Example 438, 4-(9′-cyclohexyl-5′-methyl-6′-oxo-5′,6′,8′,9′-tetrahydrospiro[cyclopropane-1,7′-pyrimido[5,4-b][1,4]diazepine]-2′-ylamino)-2-fluoro-5-methoxy-N-[(3R)-1-methylpyrrolidin-3-yl]benzamide], the 50% inhibitory concentration (IC50) was below 300 nM. On to `COc1cc(C(=O)NCC(C)(C)CN2CCCC2)ccc1Nc1ncc2c(n1)N(C1CCCCC1)CC1(CC1)C(=O)N2C` [Example 440, 4-(9′-cyclohexyl-5′-methyl-6′-oxo-5′,6′,8′,9′-tetrahydrospiro[cyclopropane-1,7′-pyrimido[5,4-b][1,4]diazepine]-2′-ylamino)-N-(2,2-dimethyl-3-pyrrolidin-1-yl-propyl)-3-methoxy-benzamide], for which the IC50 was below 300 nM. As for `CCN1CC[C@@H](NC(=O)c2ccc(Nc3ncc4c(n3)N(C3CCCCC3)CC3(CC3)C(=O)N4C)c(OC)c2)C1` [Example 441, 4-(9′-cyclohexyl-5′-methyl-6′-oxo-5′,6′,8′,9′-tetrahydrospiro[cyclopropane-1,7′-pyrimido[5,4-b][1,4]diazepine]-2′-ylamino)-N-[(3R)-1-ethylpyrrolidin-3-yl]-3-methoxy-benzamide], the IC50 was below 300 nM. Take `COc1cc(C(=O)NC2C[C@H]3CCC[C@@H](C2)N3C)c(F)cc1Nc1ncc2c(n1)N(C1CCCCC1)CC1(CC1)C(=O)N2C` (stereo partly drawn) [Example 442, 4-(9′-cyclohexyl-5′-methyl-6′-oxo-5′,6′,8′,9′-tetrahydrospiro[cyclopropane-1,7′-pyrimido[5,4-b][1,4]diazepine]-2′-ylamino)-2-fluoro-5-methoxy-N-[(1S,5R)-9-methyl-9-azabicyclo[3.3.1]non-3-yl]benzamide]: the IC50 is below 300 nM. The same measure for `CCN1CCC(NC(=O)c2cc(OC)c(Nc3ncc4c(n3)N(C3CCCCC3)CC3(CC3)C(=O)N4C)cc2F)CC1` [Example 443, 4-(9′-cyclohexyl-5′-methyl-6′-oxo-5′,6′,8′,9′-tetrahydrospiro[cyclopropane-1,7′-pyrimido[5,4-b][1,4]diazepine]-2′-ylamino)-N-(1-ethyl-4-piperidyl)-2-fluoro-5-methoxy-benzamide]: below 300 nM; for `COc1cc(C(=O)NCCN2CCCC2)c(F)cc1Nc1ncc2c(n1)N(C1CCCCC1)CC1(CC1)C(=O)N2C` [Example 444, 4-(9′-cyclohexyl-5′-methyl-6′-oxo-5′,6′,8′,9′-tetrahydrospiro[cyclopropane-1,7′-pyrimido[5,4-b][1,4]diazepine]-2′-ylamino)-2-fluoro-5-methoxy-N-(2-pyrrolidin-1-ylethyl)benzamide]: below 300 nM; for `COc1cc(C(=O)NCC2(CN3CCCC3)CC2)c(F)cc1Nc1ncc2c(n1)N(C1CCCCC1)CC1(CC1)C(=O)N2C` [Example 445, 4-(9′-cyclohexyl-5′-methyl-6′-oxo-5′,6′,8′,9′-tetrahydrospiro[cyclopropane-1,7′-pyrimido[5,4-b][1,4]diazepine]-2′-ylamino)-2-fluoro-5-methoxy-N-[[1-(pyrrolidin-1-ylmethyl)cyclopropyl]methyl]benzamide]: below 300 nM.

As to `CN1CCC(NC(=O)c2ccc(Nc3ncc4c(n3)N(C3CCCCC3)CC3(CC3)C(=O)N4C)c(F)c2)CC1` [Example 446, 4-(9′-cyclohexyl-5′-methyl-6′-oxo-5′,6′,8′,9′-tetrahydrospiro[cyclopropane-1,7′-pyrimido[5,4-b][1,4]diazepine]-2′-ylamino)-3-fluoro-N-(1-methyl-4-piperidyl)benzamide], the half-inhibitory concentration (IC50) is below 300 nM. Turning to `COc1cc(C(=O)NC2CCCCN(C)C2)ccc1Nc1ncc2c(n1)N(C1CCCC1)CCC(=O)N2C` (stereo not drawn) [Example 453, 4-[(2-cyclopentyl-6-methyl-5-oxo-2,6,9,11-tetrazabicyclo[5.4.0]undeca-7,9,11-trien-10-yl)amino]-3-methoxy-N-(1-methylazepan-3-yl)benzamide], the IC50 was below 300 nM.

As usually defined, the IC50 is the concentration at which inhibition is half-maximal.
